Assay results published in patent US20230024096A1, “BIFUNCTIONAL COMPOUNDS FOR THE TREATMENT OF CANCER” (Hoffmann-La Roche Inc., priority 2019, published 2023).

Biological target: T1, SMARCA2 (Homo sapiens, UniProt P51531)
T1 construct: endogenous in cells; host or cells: HT1080 (CRISPR HiBiT knock-in clone, generated in house)
Test: SMARCA2 HiBiT degradation assay (cellular)
Format: cell-based
Conditions: table head names A549; for DC50: 6 h incubation, HiBiT-tagged SMARCA2, luminescence read-out, read-out: HiBit A549 SMARCA2 IP (nM) 6 h; for Emax: A549, 6 h incubation, Emax = amount of residual protein remaining in the cell following compound treatment

T1 sequence (P51531 whole entry): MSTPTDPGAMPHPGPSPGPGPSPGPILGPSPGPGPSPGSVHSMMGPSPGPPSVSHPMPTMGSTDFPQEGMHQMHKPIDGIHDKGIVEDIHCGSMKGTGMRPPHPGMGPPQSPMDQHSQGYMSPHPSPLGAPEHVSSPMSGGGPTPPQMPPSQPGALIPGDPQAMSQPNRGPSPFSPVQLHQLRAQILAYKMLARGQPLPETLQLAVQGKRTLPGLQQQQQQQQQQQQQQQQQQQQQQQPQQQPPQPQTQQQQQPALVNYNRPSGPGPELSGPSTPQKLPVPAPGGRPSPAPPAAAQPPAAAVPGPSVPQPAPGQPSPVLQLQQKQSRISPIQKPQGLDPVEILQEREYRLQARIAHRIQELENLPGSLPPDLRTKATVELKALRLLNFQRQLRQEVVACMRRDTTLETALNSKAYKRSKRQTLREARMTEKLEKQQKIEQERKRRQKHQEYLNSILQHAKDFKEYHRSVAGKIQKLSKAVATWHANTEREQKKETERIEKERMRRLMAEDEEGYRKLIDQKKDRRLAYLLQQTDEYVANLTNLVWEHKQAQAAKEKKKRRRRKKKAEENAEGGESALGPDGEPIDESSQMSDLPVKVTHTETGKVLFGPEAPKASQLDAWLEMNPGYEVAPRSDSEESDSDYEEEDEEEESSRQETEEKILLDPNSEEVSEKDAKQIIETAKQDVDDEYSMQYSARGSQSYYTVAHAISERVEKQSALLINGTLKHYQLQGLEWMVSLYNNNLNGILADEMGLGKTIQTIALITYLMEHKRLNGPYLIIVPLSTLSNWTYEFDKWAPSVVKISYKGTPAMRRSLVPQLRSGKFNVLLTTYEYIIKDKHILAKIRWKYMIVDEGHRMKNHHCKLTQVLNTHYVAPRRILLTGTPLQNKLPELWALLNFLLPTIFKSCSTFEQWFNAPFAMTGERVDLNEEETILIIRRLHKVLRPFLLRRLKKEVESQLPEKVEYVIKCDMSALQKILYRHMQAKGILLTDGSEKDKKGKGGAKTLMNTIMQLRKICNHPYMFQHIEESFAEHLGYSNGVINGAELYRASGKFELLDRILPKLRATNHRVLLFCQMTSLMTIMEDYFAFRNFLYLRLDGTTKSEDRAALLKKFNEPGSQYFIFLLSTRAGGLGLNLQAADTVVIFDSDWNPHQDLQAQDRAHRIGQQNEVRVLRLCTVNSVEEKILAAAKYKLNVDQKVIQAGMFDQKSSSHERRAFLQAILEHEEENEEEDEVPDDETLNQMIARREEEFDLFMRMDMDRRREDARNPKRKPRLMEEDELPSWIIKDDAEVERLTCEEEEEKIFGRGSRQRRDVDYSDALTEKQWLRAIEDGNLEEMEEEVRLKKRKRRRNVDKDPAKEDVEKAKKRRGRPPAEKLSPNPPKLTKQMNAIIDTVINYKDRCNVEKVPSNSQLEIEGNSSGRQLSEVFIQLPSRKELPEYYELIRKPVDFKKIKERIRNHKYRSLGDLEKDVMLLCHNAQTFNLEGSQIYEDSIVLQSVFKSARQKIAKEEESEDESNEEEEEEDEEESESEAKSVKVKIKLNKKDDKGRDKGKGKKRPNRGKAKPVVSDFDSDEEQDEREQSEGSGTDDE

Structure (SMILES) | DC50 [nM] | Emax [%]
Nc1nnc(-c2ccccc2O)cc1N1CCN(c2cccc(CN3CCN(C(=O)CC4CCN(c5ccc6c(c5)C(=O)N(C5CCC(=O)NC5=O)C6=O)CC4)CC3)c2)C2(CC2)C1 (stereo not shown) [Example 130, 5-(4-(2-(4-(3-(7-(3-amino-6-(2-hydroxyphenyl)pyridazin-4-yl)-4,7-diazaspiro[2.5]octan-4-yl)benzyl)piperazin-1-yl)-2-oxoethyl)piperidin-1-yl)-2-(2,6-dioxopiperidin-3-yl)isoindoline-1,3-dione] | 12 | 43
Nc1nnc(-c2ccccc2O)cc1OC1CCCN(c2ccc(N3CCN(CCCCCCCCCc4ccc(CNc5cccc6c5C(=O)N(C5CCC(=O)NC5=O)C6=O)nc4)CC3)cc2)C1 (stereo not shown) [Example 136, 4-[[5-[9-[4-[4-[3-[3-amino-6-(2-hydroxyphenyl)pyridazin-4-yl]oxy-1-piperidyl]phenyl]piperazin-1-yl]nonyl]-2-pyridyl]methylamino]-2-(2,6-dioxo-3-piperidyl)isoindoline-1,3-dione] | 495 | 45
Nc1nnc(-c2ccccc2O)cc1OC1CCCN(c2ccc(N3CCN(CCCCCCCCCc4ccnc(CNc5cccc6c5C(=O)N(C5CCC(=O)NC5=O)C6=O)c4)CC3)cc2)C1 (stereo not shown) [Example 139, 4-[[4-[9-[4-[4-[3-[3-amino-6-(2-hydroxyphenyl)pyridazin-4-yl]oxy-1-piperidyl]phenyl]piperazin-1-yl]nonyl]-2-pyridyl]methylamino]-2-(2,6-dioxo-3-piperidyl)isoindoline-1,3-dione] | 802 | 62
Nc1nnc(-c2ccccc2O)cc1N1CC(Oc2cccc(C(=O)N3CCN(C(=O)CCCCCCNc4cccc5c4C(=O)N(C4CCC(=O)NC4=O)C5=O)CC3)c2)C1 (stereo not shown) [Example 145, 4-[[7-[4-[3-[1-[3-amino-6-(2-hydroxyphenyl)pyridazin-4-yl]azetidin-3-yl]oxybenzoyl]piperazin-1-yl]-7-oxo-heptyl]amino]-2-(2,6-dioxo-3-piperidyl)isoindoline-1,3-dione] | 928 | 69
Nc1nnc(-c2ccccc2O)cc1N1CC(Oc2cccc(C(=O)N3CCN(C(=O)CCCCCCCCCNc4cccc5c4C(=O)N(C4CCC(=O)NC4=O)C5=O)CC3)c2)C1 (stereo not shown) [Example 146, 4-[[10-[4-[3-[1-[3-amino-6-(2-hydroxyphenyl)pyridazin-4-yl]azetidin-3-yl]oxybenzoyl]piperazin-1-yl]-10-oxo-decyl]amino]-2-(2,6-dioxo-3-piperidyl)isoindoline-1,3-dione] | 126 | 41
Nc1ccccc1-c1cc(N2CC3CCC(C2)N3c2cccc(CN3CCN(C(=O)C4CCN(c5ccc6c(c5)C(=O)N(C5CCC(=O)NC5=O)C6=O)CC4)CC3)c2)c(N)nn1 (stereo not shown) [Example 147, 5-[4-[4-[[3-[3-[3-amino-6-(2-aminophenyl)pyridazin-4-yl]-3,8-diazabicyclo[3.2.1]octan-8-yl]phenyl]methyl]piperazine-1-carbonyl]-1-piperidyl]-2-(2,6-dioxo-3-piperidyl)isoindoline-1,3-dione] | 236 | 69
Nc1nnc(-c2ccccc2O)cc1N1CC(Oc2ccc(C(=O)N3CCN(C(=O)CCCCCCCCCNc4cccc5c4C(=O)N(C4CCC(=O)NC4=O)C5=O)CC3)cc2)C1 (stereo not shown) [Example 150, 4-[[10-[4-[4-[1-[3-amino-6-(2-hydroxyphenyl)pyridazin-4-yl]azetidin-3-yl]oxybenzoyl]piperazin-1-yl]-10-oxo-decyl]amino]-2-(2,6-dioxo-3-piperidyl)isoindoline-1,3-dione] | 553 | 65
Nc1nnc(-c2ccccc2O)cc1N1CCC(NC(=O)CCCN2CCC(c3ccc(OC4CCC(=O)NC4=O)cc3)CC2)(c2ccccc2)CC1 (stereo not shown) [Example 151, N-[1-[3-amino-6-(2-hydroxyphenyl)pyridazin-4-yl]-4-phenyl-4-piperidyl]-4-[4-[4-[(2,6-dioxo-3-piperidyl)oxy]phenyl]-1-piperidyl]butanamide] | 855 | 54
Nc1nnc(-c2cc(F)ccc2O)cc1N1CC2CCC(C1)N2c1cccc(CN2CCN(C(=O)C3CCN(c4ccc5c(c4)C(=O)N(C4CCC(=O)NC4=O)C5=O)CC3)CC2)c1 (stereo not shown) [Example 158, 5-[4-[4-[[3-[3-[3-amino-6-(5-fluoro-2-hydroxy-phenyl)pyridazin-4-yl]-3,8-diazabicyclo[3.2.1]octan-8-yl]phenyl]methyl]piperazine-1-carbonyl]-1-piperidyl]-2-(2,6-dioxo-3-piperidyl)isoindoline-1,3-dione] | – | 5
Nc1nnc(-c2ccccc2O)cc1N1CCC(C(=O)N2CC3(CN(CC4CCN(c5ccc6c(c5)C(=O)N(C5CCC(=O)NC5=O)C6=O)CC4)C3)C2)(c2ccccc2)CC1 (stereo not shown) [Example 159, 5-(4-((6-(1-(3-amino-6-(2-hydroxyphenyl)pyridazin-4-yl)-4-phenylpiperidine-4-carbonyl)-2,6-diazaspiro[3.3]heptan-2-yl)methyl)piperidin-1-yl)-2-(2,6-dioxopiperidin-3-yl)isoindoline-1,3-dione] | 11 | 27
Nc1nnc(-c2cc(F)ccc2O)cc1N1C2CCC1CN(c1cccc(OCCN3CCN(C(=O)C4CCN(c5ccc6c(c5)C(=O)N(C5CCC(=O)NC5=O)C6=O)CC4)CC3)c1)C2 (stereo not shown) [Example 160, 5-[4-[4-[2-[3-[8-[3-amino-6-(5-fluoro-2-hydroxy-phenyl)pyridazin-4-yl]-3,8-diazabicyclo[3.2.1]octan-3-yl]phenoxy]ethyl]piperazine-1-carbonyl]-1-piperidyl]-2-(2,6-dioxo-3-piperidyl)isoindoline-1,3-dione] | 144 | 74
Nc1nnc(-c2ccccc2O)cc1N1CCC(C(=O)N2CC3(CCN(C(=O)COc4ccc5c(c4)C(=O)N(C4CCC(=O)NC4=O)C5=O)CC3)C2)(c2ccccc2)CC1 (stereo not shown) [Example 162, 5-(2-(2-(1-(3-amino-6-(2-hydroxyphenyl)pyridazin-4-yl)-4-phenylpiperidine-4-carbonyl)-2,7-diazaspiro[3.5]nonan-7-yl)-2-oxoethoxy)-2-(2,6-dioxopiperidin-3-yl)isoindoline-1,3-dione] | 299 | 57
Nc1nnc(-c2ccccc2O)cc1N1CCC(C(=O)N2CC3(CCN(C(=O)C4CCN(c5ccc6c(c5)C(=O)N(C5CCC(=O)NC5=O)C6=O)CC4)CC3)C2)(c2ccccc2)CC1 (stereo not shown) [Example 163, 5-(4-(2-(1-(3-amino-6-(2-hydroxyphenyl)pyridazin-4-yl)-4-phenylpiperidine-4-carbonyl)-2,7-diazaspiro[3.5]nonane-7-carbonyl)piperidin-1-yl)-2-(2,6-dioxopiperidin-3-yl)isoindoline-1,3-dione] | 22 | 33
Nc1nnc(-c2ccccc2O)cc1N1CCC(C(=O)N2CC3(CCN(C(=O)CC4CCN(c5ccc6c(c5)C(=O)N(C5CCC(=O)NC5=O)C6=O)CC4)CC3)C2)(c2ccccc2)CC1 (stereo not shown) [Example 164, 5-(4-(2-(2-(1-(3-amino-6-(2-hydroxyphenyl)pyridazin-4-yl)-4-phenylpiperidine-4-carbonyl)-2,7-diazaspiro[3.5]nonan-7-yl)-2-oxoethyl)piperidin-1-yl)-2-(2,6-dioxopiperidin-3-yl)isoindoline-1,3-dione] | 42 | 50
Nc1nnc(-c2ccccc2O)cc1N1CCC(C(=O)N2CC3(CCN(C(=O)CN4CCC(c5ccc(NC6CCC(=O)NC6=O)cc5)CC4)CC3)C2)(c2ccccc2)CC1 (stereo not shown) [Example 165, 3-((4-(1-(2-(2-(1-(3-amino-6-(2-hydroxyphenyl)pyridazin-4-yl)-4-phenylpiperidine-4-carbonyl)-2,7-diazaspiro[3.5]nonan-7-yl)-2-oxoethyl)piperidin-4-yl)phenyl)amino)piperidine-2,6-dione] | 28 | 38
Nc1nnc(-c2ccccc2O)cc1N1CCC(C(=O)N2CCC3(CC2)CN(C(=O)COc2ccc4c(c2)C(=O)N(C2CCC(=O)NC2=O)C4=O)CCO3)(c2ccccc2)CC1 (stereo not shown) [Example 166, 5-(2-(9-(1-(3-amino-6-(2-hydroxyphenyl)pyridazin-4-yl)-4-phenylpiperidine-4-carbonyl)-1-oxa-4,9-diazaspiro[5.5]undecan-4-yl)-2-oxoethoxy)-2-(2,6-dioxopiperidin-3-yl)isoindoline-1,3-dione] | 607 | 53
Nc1nnc(-c2ccccc2O)cc1N1CCC(C(=O)N2CCC3(CC2)CN(C(=O)C2CCN(c4ccc5c(c4)C(=O)N(C4CCC(=O)NC4=O)C5=O)CC2)CCO3)(c2ccccc2)CC1 (stereo not shown) [Example 167, 5-(4-(9-(1-(3-amino-6-(2-hydroxyphenyl)pyridazin-4-yl)-4-phenylpiperidine-4-carbonyl)-1-oxa-4,9-diazaspiro[5.5]undecane-4-carbonyl)piperidin-1-yl)-2-(2,6-dioxopiperidin-3-yl)isoindoline-1,3-dione] | 54 | 43
Nc1nnc(-c2ccccc2O)cc1N1CCC(C(=O)N2CCC3(CC2)CN(C(=O)CC2CCN(c4ccc5c(c4)C(=O)N(C4CCC(=O)NC4=O)C5=O)CC2)CCO3)(c2ccccc2)CC1 (stereo not shown) [Example 168, 5-(4-(2-(9-(1-(3-amino-6-(2-hydroxyphenyl)pyridazin-4-yl)-4-phenylpiperidine-4-carbonyl)-1-oxa-4,9-diazaspiro[5.5]undecan-4-yl)-2-oxoethyl)piperidin-1-yl)-2-(2,6-dioxopiperidin-3-yl)isoindoline-1,3-dione] | 111 | 60
Nc1nnc(-c2ccccc2O)cc1N1CCC(C(=O)N2CCC3(CC2)CN(C(=O)CN2CCC(c4ccc(NC5CCC(=O)NC5=O)cc4)CC2)CCO3)(c2ccccc2)CC1 (stereo not shown) [Example 169, 3-((4-(1-(2-(9-(1-(3-amino-6-(2-hydroxyphenyl)pyridazin-4-yl)-4-phenylpiperidine-4-carbonyl)-1-oxa-4,9-diazaspiro[5.5]undecan-4-yl)-2-oxoethyl)piperidin-4-yl)phenyl)amino)piperidine-2,6-dione] | 49 | 56
